The record followed here is a melting point compilation (Tetko et al.; mined from patent text by program, amines drawn as free bases though some values may be those of a salt).

For the compound `COc1ccccc1Oc1ccc(Cl)cc1C(=O)O`, the melting point was 115 to 118 °C.

As for `Cc1c(Br)ccc(O)c1C(=O)O`, the melting point was in the range of 163 to 165 °C. Next, `CCc1cccc(C)c1CNc1cc(C(=O)N2CCOCC2)cc2c1nc(C)n2C`: 229 to 231 °C; `O=C(CCC1CCN(Cc2ccccc2)CC1)c1ccc(F)cc1`: 65 to 67 °C. Next, `COc1ccc(C(=O)Nc2c(C)c(C)c3c(c2C)C(c2ccc(C(C)C)cc2)C2(CCN(C)CC2)O3)cc1` (stereo unspecified): 277 to 278 °C; `NCCCN1c2ccccc2N=C(c2ccccc2F)c2ccccc21`: 144 to 145 °C. Consider `CC(=O)c1csc(-c2ccncc2)c1C`, for which the melting point was in the range of 87 to 87.5 °C. In turn, `N#Cc1ccc(N2C(=O)[C@@H]3[C@H](O)CCN3C2=S)c2ccccc12` returned a melting point of 215 to 216 °C. Compound `N#Cc1c2[nH]c(C(=O)O)cc(=O)c2cc2c(=O)cc(C(=O)O)[nH]c12` displayed a melting point greater than 320 °C. `O=C(O)c1ccc2oc3c(c(=O)c2c1)CCCC3=Cc1ccccc1` gave a melting point of 284 to 286 °C.

`COc1ccc(/C=C\c2ccc(OC)c(OC)c2OC)cc1` showed a melting point of 55 to 57 °C. The same measure for `C=C(C)Cc1c(O)c(C)c(C)c2c1CC(C)(C)N2C=O`: 116 to 118 °C; for `COC(=O)NC1=NCC(c2ccccc2F)N1C` (stereo unspecified): 153 to 155 °C. The same measure for `COc1ccccc1C(C)(O)c1ccco1` (stereo unspecified): 64 to 66 °C. For the compound `COc1cc(COc2nn(C)cc2CO)ccc1OCc1nc(-c2ccco2)oc1C`, the melting point is 132 to 133 °C. Consider `CCOC(=O)CC(=O)c1cc(C(CC(C)C)NC(=O)Cc2ccc(NC(=O)Nc3ccccc3Cl)cc2)no1` (stereo unspecified), for which the melting point lay within 150 to 152 °C. Next, `CCOC(=O)C1=C(C)NC(N)=C(C(=O)OCCOC)C1c1cccc([N+](=O)[O-])c1` (stereo unspecified): 174 °C; `NNC(=O)Nc1nc2ccccc2[nH]1`: 320 to 322 °C. Next, `CC(C)(CO)Cc1ccc(-c2ccc(CC(C)(C)CO)cc2)cc1`: 168 to 170 °C. As for `CC1=C(C(=O)c2ccc(C(F)(F)F)cc2)C(=O)C2C=CC=CC2C1=O` (stereo unspecified), the melting point fell in the range of 155 to 156 °C. Turning to `O=C(Nc1ccc(O)cc1[N+](=O)[O-])OCCCl`, the melting point is 170 °C. `CCOC(=O)C(=NO)c1ccc(OC)cc1` gave a melting point of 81 to 82 °C. The same measure for `COc1cccc2c1c(N1CCOCC1)nc1c(-c3noc(C4CC4)n3)ncn12`: 227 to 228 °C. Take `O=C(O)[C@H](Cc1ccccc1)NS(=O)(=O)N1CCOCC1`: the melting point lay in the range of 157 to 158 °C. The same measure for `CCCC1(C(C)(C)C(=O)Oc2ccc(N)cc2)C(=O)NC(=O)NC1=O`: 212 to 215 °C. Next, `COC(=O)c1cccc([N+](=O)[O-])c1CBr`: 67 to 70 °C. The same measure for `C=CCn1c(C)nc2c3c(ccc21)[C@@H](OCCF)[C@H](O)[C@@H](c1ccccc1)O3`: 117 °C; for `Nc1cc(C(F)(F)F)ccc1-c1cc(Oc2ccc3cccnc3c2)ncn1`: 193 to 194 °C; for `CC(C)(C)OC(=O)N=C(NC(=O)OC(C)(C)C)N1CCC(n2ccc3ccccc32)CC1`: 115 to 118 °C. The compound `C=CCn1cc(Br)cnc1=O` displayed a melting point of 142 to 143 °C. Turning to `CCCCCCCCCCCCCCCc1c([N+](=O)[O-])cc([N+](=O)[O-])c(O)c1C(=O)O`, the melting point is 78 to 82 °C. In turn, `Cc1ccc2c(c1C)OC(C)C(NNc1ncnc3c1ncn3C1OC(CO)C(O)C1O)C2` (stereo unspecified) returned a melting point of 109 to 113 °C.

Take `O=C1CCCc2nc3ccccc3c(NCCc3ccccc3)c21`: the melting point fell in the range of 129 to 132 °C. Next, `C=CCSc1ccc(OCc2ccccc2)nn1`: 56 to 58 °C; `CC(C)OC(=O)Cc1nc(-c2ccc(Cl)cc2)oc1-c1ccco1`: 96 to 97 °C. Regarding `CC1(C)CC(NC=O)CC(C)(C)N1`, the melting point worked out at 153 °C. Consider `CCOC(=O)C1C(=O)c2cc(F)ccc2N=C1c1ccccc1` (stereo unspecified), for which the melting point lay in the range of 277 to 279 °C. `COC(=O)c1ccc([N+](=O)[O-])cc1C#CC(C)(C)C` returned a melting point of 88 to 89 °C. Next, `CS(=O)(=O)c1ccc(C2=C(c3ccccc3)CN(C3CCCCC3)C2=O)cc1`: 183 to 185 °C; `O=C1C=c2c(c3c(c4[nH]c5ccccc5c24)Cc2ccccc2-3)=N1`: 275 to 280 °C; `O=C1c2ccccc2C(=O)N1CCn1nc(O)c2[nH]c3cc(Cl)ccc3c(=O)c2c1=O`: 349 to 352 °C. In turn, `COC(CCOS(=O)(=O)c1ccc(C)cc1)CCOS(=O)(=O)c1ccc(C)cc1` yielded a melting point of 58 °C.

`CCOC(=O)C1(O)COc2cc3ccc(=O)[nH]c3cc2C1=O` (stereo unspecified) gave a melting point greater than 300 °C. The same measure for `Cc1ccc(C(=O)Nc2c(NC(=O)CN3CCC4(CC3)OCCO4)ccc3c2C(=O)c2ccccc2C3=O)cc1`: 197 to 198 °C. On to `CC1(c2ccc(Br)cc2)C(=O)Nc2cc(Cl)cc(Cl)c2C1=O` (stereo unspecified), for which the melting point was 237 to 238 °C. With `COc1ccccc1C1(CC(=O)O)C(=O)Nc2ccc(Cl)cc21` (stereo unspecified), the melting point fell in the range of 135 to 139 °C. `O=C(O)Cc1cccc2c(-c3ccc([N+](=O)[O-])cc3)nccc12`: the melting point lay within 252 to 254 °C. The same measure for `CCCCCCCCCCCCCc1c[nH]c(C(=O)O)c1`: 150 to 151 °C. The same measure for `Cc1ccc(S(=O)(=O)OCc2c([N+](=O)[O-])cccc2[N+](=O)[O-])cc1`: 98 to 99 °C; for `Cc1ccc(-c2ccccn2)cc1S(N)(=O)=O`: 173 to 176 °C.

`CN(C)CCOC(=O)c1cc2cccc(O)c2[nH]1`: the melting point is 149 to 152 °C. Next, `CCNC(=O)N(c1ccc(C(O)(C(F)(F)F)C(F)(F)F)cc1)S(C)(=O)=O`: 161 to 164 °C; `CC(C)(C)c1cc(I)c2c(c1)CNC1(CCCCC1)O2`: 112 to 114 °C; `COc1ccc(C2=CCN(Cc3n[nH]c4c(Cl)cccc34)CC2)cc1`: 201 to 203 °C.

`Oc1ccc(C2(c3ccc(O)c(Cl)c3)CCCCCCCCCCC2)cc1Cl` showed a melting point of 167 to 169 °C. The same measure for `COc1ccc(C=Cc2nnc(C(F)(F)F)o2)cc1`: 117 to 118 °C; for `C=C(C)C(=O)NCCCNC(=O)CC(C)=O`: 93 to 94 °C; for `Nc1ccc(OCc2ccccc2)c(Cl)c1`: 54 °C. The same measure for `Cc1cc(C)c2c(c1)N[C@@H](C(=O)O)[C@@H](C)C2=O` (relative stereo): 156 to 157 °C; for `CCC[C@H](Oc1cc(C)c(-n2cc(C(F)(F)F)cn2)c(C)c1)c1ccc(C(=O)NCCC(=O)O)cc1`: 157 to 159 °C.

In the case of `CCOc1cccc(C(CO)n2nc(C(=O)O)c3c2-c2ccc(OCc4cncnc4)cc2CC3)c1` (stereo unspecified), the melting point fell in the range of 210 to 212 °C. As to `CCc1cnc(N=Cc2cnc([N+](=O)[O-])n2C)n1CCO`, the melting point fell in the range of 185 to 187 °C. Turning to `Cn1cc(-c2cccc(C(F)(F)F)c2)c(=O)c(C2CC=CCC2)c1` (stereo unspecified), the melting point fell in the range of 194 to 195 °C. The same measure for `Cc1nc(CNC=O)ccc1OCc1ccccc1`: 67 to 68 °C. Next, `Nc1ccc(C23CC2C(=O)NC3=O)cc1` (stereo unspecified): 183 to 185 °C. The same measure for `COc1ccc2ncc(CO)cc2c1`: 92 to 93 °C; for `CC(=O)c1c(C)c2cnc(N)nc2n(C2CCCC2)c1=O`: 182 to 186 °C; for `NC(=O)c1ccc(C(O)c2c(O)c(=O)ccn2CCO)cc1` (stereo unspecified): 215 to 216 °C. The compound `CC(C)(CC12CC3CC(CC(C3)C1)C2)NC=O` gave a melting point of 87 to 88 °C. Next, `CN1C(=O)CN2CCNC2(c2ccccc2)c2cc(Cl)ccc21` (stereo unspecified): 164 to 167 °C. Next, `COc1cccc2ccc(Cl)nc12`: 90 to 92 °C; `O=C(O)c1ccc(NCCCOc2ccccc2)cc1`: 159 to 162 °C. In turn, `Cc1cccc2cc(C(=O)N(C)C)c(C=CNc3ccc(F)cc3)nc12` had a melting point of 172 to 173 °C. Next, `Oc1cc2ccc(Br)cc2cc1C12CC3CC(CC(C3)C1)C2`: 215 to 216 °C; `COC(=O)[C@](C)(Cc1ccc(N(C(=O)OC(C)(C)C)C(=O)C2CCNCC2)cc1)n1nnnc1C1CCCN1S(=O)(=O)c1ccc(C)cc1` (stereo partly specified): 92 to 102 °C. The same measure for `Cc1c(N)ccc(Cc2ccc(N)c(C)c2C)c1C`: 141 to 143 °C; for `NC(=O)C(CCO)N1CCCC1=O` (stereo unspecified): 164 to 165 °C.

Take `CCOC(=O)C1=C(CSSc2ccccc2)NC(C)=C(C(=O)OC)C1c1cccc([N+](=O)[O-])c1` (stereo unspecified): the melting point is 132 to 133 °C. The compound `O=C(Nc1cc(NC(=O)C2CCCCC2)cc(NC(=O)C2CCCCC2)c1)C1CCCCC1` had a melting point of 286 °C. The same measure for `CCCc1nn(C)c2c(=O)[nH]c(-c3cc(Br)ccc3OCC)nc12`: 157 to 159 °C; for `COc1ccc(C#N)cc1C=NO`: 142 to 144 °C. Next, `CCCN=C(NC#N)NCCSCc1[nH]cnc1C`: 108 to 110 °C; `COC(=O)c1csc(CCCc2cc3c(=O)[nH]c(N)nc3[nH]2)c1`: 182 to 183 °C. The same measure for `COc1cc(-c2ccc(C(C)C)cc2)cc2oc(=O)c(Cl)c(C)c12`: 124 °C. `O=C(NCc1nccs1)c1ccnc(N2CCN(Cc3ccc(F)cc3)C2=O)c1` registered a melting point of 123 to 125 °C. Next, `Cc1cc(F)cc([N+](=O)[O-])c1N`: 111 to 113 °C. In the case of `CCC1(O)CC(=O)OCc2c1cc1n(c2=O)Cc2c-1nc1cc(F)c(F)cc1c2-c1ccccc1` (stereo unspecified), the melting point was greater than 250 °C.

On to `CC(=O)c1sc(N2CCN(Cc3ccc(C(F)(F)F)cc3)C2=O)nc1C`, for which the melting point is 141 to 142 °C.

In turn, `CCOC(=O)c1c(O)c2cc(Cl)cnc2n(Cc2ccccc2)c1=O` gave a melting point of 141 to 142 °C.

With `CCCCCCCCC1N=C(N)NC(Nc2cc(C(C)(C)C)ccc2OC)=N1` (stereo unspecified), the melting point lay in the range of 129 to 132 °C.

`c1ccc(CN2CCC(NCc3ccc(OCc4ccnc5ccccc45)cc3)CC2)cc1` yielded a melting point of 72 to 75 °C.
